Test results taken from the CheMixHub drug solubility set.

Test: xn = mol fraction of the nth substance listed, in the solute-free solvent

Nc1nccnc1Cl + CO + O
solubility (g/100 g solution)
Details	278.15 K	283.15 K	288.15 K	293.15 K	298.15 K	303.15 K	308.15 K	313.15 K	318.15 K	323.15 K
x2 = 0.05881	0.0549	0.0728	0.0951	0.118	0.143	0.169	0.195	0.225	0.254	0.284
x2 = 0.1233	0.118	0.155	0.201	0.248	0.298	0.348	0.402	0.461	0.517	0.578
x2 = 0.1942	0.209	0.274	0.352	0.433	0.519	0.604	0.695	0.795	0.89	0.996
x2 = 0.2727	0.322	0.42	0.538	0.661	0.79	0.918	1.06	1.21	1.35	1.51
x2 = 0.3599	0.423	0.542	0.697	0.868	1.06	1.24	1.44	1.66	1.86	2.1
x2 = 0.4576	0.533	0.708	0.918	1.15	1.37	1.6	1.86	2.13	2.4	2.73
x2 = 0.5675	0.656	0.886	1.15	1.42	1.7	1.98	2.31	2.65	3.02	3.44
x2 = 0.6923	0.804	1.06	1.35	1.67	1.97	2.3	2.71	3.13	3.58	4.07
x2 = 0.835	0.917	1.2	1.55	1.95	2.37	2.78	3.25	3.75	4.25	4.86

OCCN(CCO)c1nc(N2CCCCC2)c2nc(N(CCO)CCO)nc(N3CCCCC3)c2n1 + CO + O
solubility (g/100 g solution)
Details	293.15 K	298.15 K	303.15 K	308.15 K	313.15 K	318.15 K	323.15 K	328.15 K
x2 = 0.3	0.0465	0.0712	0.121	0.178	0.281	0.39	0.543	0.757
x2 = 0.4	0.197	0.312	0.48	0.676	1.01	1.48	2.27	3.26
x2 = 0.5	0.513	0.826	1.16	1.64	2.54	3.82	6.13	9.01
x2 = 0.6	1.12	1.6	2.21	3.21	4.77	7.29	11.6	18
x2 = 0.7	1.8	2.43	3.45	5.11	7.41	11.5	17.4	26.3
x2 = 0.8	2.43	3.31	4.57	6.51	9.53	14.1	20.9	29.2
x2 = 0.9	2.81	3.85	5.46	7.53	10.9	15.8	22.7	31.9

S=c1[nH]ncs1 + CO + O
solubility (g/100 g solution)
Details	278.15 K	283.15 K	288.15 K	293.15 K	298.15 K	303.15 K	308.15 K	313.15 K	318.15 K	323.15 K
x2 = 0.1	0.5	0.691	0.906	1.21	1.6	2.03	2.55	3.35	4.36	5.36
x2 = 0.2	0.926	1.24	1.54	2.06	2.68	3.38	4.35	5.66	6.96	8.64
x2 = 0.3	1.39	1.97	2.65	3.39	4.42	5.59	7.12	9.03	11.2	13.9
x2 = 0.4	2.53	3.26	4.24	5.33	6.73	8.48	10.5	13.2	16.4	19.8
x2 = 0.5	3.89	4.96	6.04	7.5	9.43	11.5	13.7	16.8	20	23.9
x2 = 0.6	5.2	6.6	8.03	9.72	11.6	14	17	19.9	23.3	27.5
x2 = 0.7	6.84	8.43	10.2	12	14.1	16.4	19.3	22.6	26.2	29.6
x2 = 0.8	8.37	10.1	11.9	13.8	16	18.5	21.4	24.6	28.2	31.5
x2 = 0.9	10.1	11.9	13.7	15.8	18	20.5	23.4	26.6	30	33.2

c1ccc2[nH]c(-c3cscn3)nc2c1 + CO + O
solubility (g/100 g solution)
Details	283.15 K	288.15 K	293.15 K	298.15 K	303.15 K	308.15 K	313.15 K	318.15 K	323.15 K
x2 = 0.05881	0.00229	0.00287	0.00369	0.00466	0.00574	0.00699	0.00862	0.0104	0.0128
x2 = 0.1233	0.0131	0.0159	0.0194	0.0238	0.0278	0.0335	0.0401	0.0473	0.0561
x2 = 0.1942	0.0339	0.0408	0.0481	0.0566	0.0663	0.0786	0.0909	0.105	0.122
x2 = 0.2727	0.0719	0.0844	0.101	0.119	0.139	0.161	0.187	0.216	0.246
x2 = 0.3599	0.131	0.154	0.181	0.206	0.242	0.278	0.317	0.364	0.412
x2 = 0.4576	0.21	0.243	0.283	0.328	0.368	0.419	0.477	0.541	0.616
x2 = 0.5675	0.329	0.373	0.425	0.486	0.554	0.62	0.697	0.779	0.874
x2 = 0.6923	0.478	0.542	0.614	0.69	0.779	0.87	0.967	1.07	1.19
x2 = 0.835	0.643	0.725	0.815	0.914	1.02	1.13	1.25	1.38	1.52
